Consider two compounds from US12070448B2, “Use of carbamate compound for prevention, alleviation or treatment of status epilepticus” (SK BIOPHARMACEUTICALS CO., LTD., priority 2018, dated 2024).

In test [1] the test system is pilocarpine-induced status epilepticus. Nature of the test: Pilocarpine-induced status epilepticus in mice. To be noted: for Mortality: 50 min. Format: in vivo, mouse. On the procedure:
Male mice (C57BL/6, 21-24 g) were used. The experimental animals were housed under a 12-hour light/dark cycle (lighting from 7 pm to 7 am) and maintained at a temperature of 22-25° C. and about 40 to 60% relative humidity. Food and water were provided ad libitum. The animals were randomly divided into the following groups. […]
Experimental Groups of Administering Positive Control and Test Compound 10 Minutes after Onset of Status Epilepticus • As a control, 13 mice intraperitoneally single administered with 30% PEG300 (vehicle) at a volume of 10 ml/kg • As a positive control, 12 mice intraperitoneally single administered valproic acid (VPA) at a dose of 200 mg/kg (10 ml/kg) • 13 Mice intraperitoneally single administered Test Compound at a dose of 25 mg/kg (10 ml/kg) Induction of Status Epilepticus
Methylscopolamine was dissolved in a vehicle (0.9% saline) at a concentration of 1 mg/kg (10 m/kg) and administered subcutaneously to the back of the neck. After 30 minutes, pilocarpine was dissolved in a vehicle (0.9% saline) at a concentration of 320 mg/kg (10 ml/kg) and administered intraperitoneally.
In the case of the drug-administered experimental groups 10 minutes after onset of status epilepticus, valproic acid and Test Compound were administered 10 minutes after onset of status epilepticus. […]
In the case of the drug-administered experimental groups 10 minutes after onset of status epilepticus, Test Compound was administered intraperitoneally at a dose of 25 mg/kg (10 ml/kg). At the same time point, valproic acid (positive control group) was administered intraperitoneally at a dose of 200 mg/kg (10 ml/kg). […]
In the case of the drug-administered experimental groups 10 minutes after onset of status epilepticus, the effects of the compound were represented as the mean±standard error, and statistical significance was recognized when there was a difference of p<0.05 in data using one-way ANOVA and a Tukey's test as a post-hoc test.

The test system of test [2] is low Mg2+-induced seizure-like events (SLEs) in CA1 pyramidal neurons of hippocampal slices. Nature of the test: Whole-cell patch-clamp model of low Mg2+-induced seizure-like events in mouse hippocampal slices. Format: cell-based. To be noted: for Duration of SLE in comparison with before treatment of Test Compound, during treatment / Number of SLE in comparison with before treatment of Test Compound, during treatment: 100 μM; for Duration of SLE in comparison with before treatment of Test Compound, during treatment / Number of SLE in comparison with before treatment of Test Compound, during treatment / Duration of SLE in comparison with before treatment of Test Compound, after washing / Number of SLE in comparison with before treatment of Test Compound, after washing: mean±standard error; for Duration of SLE in comparison with before treatment of Test Compound, after washing / Number of SLE in comparison with before treatment of Test Compound, after washing: after washout of 100 μM. On the procedure:
Male mice (C57BL/6, 24-26 g) were used. The experimental animals were housed under a 12-hour light/dark cycle (lighting from 7 pm to 7 am) and maintained at a temperature of 22-25° C. and about 40 to 60% relative humidity. Food and water were provided ad libitum.
For whole-cell patch-clamp recording, the brain of the mouse was excised, and the hippocampal slices ([…]) were prepared with oxygenated artificial cerebrospinal fluid (ACSF) (124 mM NaCl, 3.0 mM KCl, 1.23 mM NaH2PO4, 2.2 mM CaCl2, 1.2 mM MgCl2, 26 mM NaHCO3, and 10 mM glucose, pH 7.4). All experiments were performed in visually guided CA1 pyramidal neurons, and a glass pipette (4-5 MΩ) was used for recording. After incubating the tissue for 1 hour, a single slice was submerged in a recording chamber and continuously superfused with oxygenated artificial cerebrospinal fluid (32° C.; 95% O2/5% CO2).
For low Mg^2+-induced seizure-like events (SLEs) measurement, 0 mM MgCl2 and 5.0 mM KCl were used. SLEs were defined by more than three spikes in a burst. Whole-cell patch-clamp currents were digitized with a MultiClamp 700B amplifier and a Digidata 1440 (Axon Instruments, CA), and the acquired data were analyzed with the pCLAMP version 10.2 (Axon Instruments) and the Mini Analysis Program (Synaptosoft).
Early SLEs (immediately after onset of SLEs): measurement of SLEs observed 20-30 minutes after the application of low Mg^2+ ACSF.
Late SLEs (after 1 hour incubation in low Mg^2+ ACSF): measurement of SLEs observed immediately after whole-cell rupture.
The treatment of the compound for measuring the effect of Test Compound was initiated 10-15 minutes after the occurrence of SLEs.
The effect of Test Compound was a comparison value (%) to the SLE value that occurred after the treatment of low Mg^2+ ACSF and before the treatment of Test Compound, and was represented as the mean±standard error. When there was a difference of p<0.05 in data by using Student's t-test, statistical significance was recognized.
On the technique in general: In patch-clamp work, channel activity is measured electrically.

[3] abbreviates: Drug administration 10 min after onset of status epilepticus, 200 mg/kg i.p., observed 50 min, mean±standard error.
Setting [4] is: Early SLE, treatment started 10-15 min after occurrence of SLE, n=5.
Setting [5] is: Early and late SLEs, 100 μM treated 10-15 minutes after occurrence of SLE, compared to after washing.
Setting [6] is: Late SLE (after 1 hour in low Mg2+ ACSF), n=8.

The structures appear in SMILES notation.

Turning to `CCCC(CCC)C(=O)O` [Positive control group, valproic acid, reference compound], the Mortality in test [1] (Drug administration 10 min after onset of status epilepticus, 200 mg/kg i.p.) came to 14%. In test [1] (setting [3]), the Seizure count is 0.8 ± 0.18 and the “Seizure score (modified Racine score)” value is given as 3.2 ± 0.39.
In the case of `NC(=O)O[C@@H](Cn1ncnn1)c1ccccc1Cl` [Test Compound, Carbamic acid (R)-1-(2-chlorophenyl)-2-tetrazol-2-yl-ethyl ester], the results for the “Duration of SLE in comparison with before treatment of Test Compound, during treatment” value in test [2] (setting [4]) and in test [2] (setting [6]) were 15.39 ± 6.82% and 42.61 ± 3.50%, respectively. In addition, the “Number of SLE in comparison with before treatment of Test Compound, during treatment” value in test [2] (setting [4]) is recorded as 31.45 ± 16.13%; in test [2] (setting [6]) it was 62.12 ± 5.59%. The “Duration of SLE in comparison with before treatment of Test Compound, after washing” value in test [2] (Early SLE, n=5) came out at 83.63 ± 5.14%; in test [2] (Late SLE, n=8), 81.81 ± 13.78%. For the same compound, the “Number of SLE in comparison with before treatment of Test Compound, after washing” value in test [2] (Early SLE, n=5) was 91.99 ± 16.47%; in test [2] (Late SLE, n=8), 92.36 ± 8.21%. In test [2] (setting [5]), the “Duration of SLE, result in words” value was “significantly reduced”. For the same compound, the “Number of SLE, result in words” value in test [2] (setting [5]) is listed as “significantly reduced”. In test [1] (20 mg/kg i.p. immediately after occurrence of status epilepticus, compared to the control group), the “Mortality, result in words” value is “tendency to suppress mortality”. For the same compound, the Mortality in test [1] (Drug administration 10 min after onset of status epilepticus, 25 mg/kg i.p.) was 0%; in test [1] (Drug administration immediately after onset of status epilepticus, 20 mg/kg i.p.), 0%.
